In ChEMBL document CHEMBL4613208, “Isatin derivatives and their anti-bacterial activities” (Eur J Med Chem, 2019) one finds IC50 and MIC data, which are given here for 17 compounds.

The test system of assay [1] is Pseudomonas aeruginosa. The assay can be described thus: Antibacterial activity against Pseudomonas aeruginosa. Format: functional, organism-based.
Assay [2] relates to Escherichia coli. Nature of the assay: Antibacterial activity against Escherichia coli. It is filed as functional, organism-based.
Assay [3] concerns Staphylococcus aureus. The assay can be described thus: Antibacterial activity against Staphylococcus aureus. Format: functional, organism-based.
The subject of assay [4] is Staphylococcus aureus. The assay can be described thus: Antibacterial activity against Staphylococcus aureus by two-fold serial dilution technique. Format: functional.
The subject of the next assay is Bacillus subtilis. The assay can be described thus: Antibacterial activity against Bacillus subtilis by two-fold serial dilution technique. It is filed as functional.
For assay [5], the system named is Pseudomonas aeruginosa. The assay can be described thus: Antibacterial activity against Pseudomonas aeruginosa by two-fold serial dilution technique. It is filed as functional.
The subject of assay [6] is Escherichia coli. Nature of the assay: Antibacterial activity against Escherichia coli by two-fold serial dilution technique. It is filed as functional.
For assay [7], the system named is Pseudomonas aeruginosa. The assay can be described thus: Antibacterial activity against Pseudomonas aeruginosa after 24 hrs by paper disc diffusion technique. It is filed as functional. A general note: A growth-free zone around the sample is the usual read-out of agar diffusion tests.
The subject of a further assay is Klebsiella pneumoniae. The assay can be described thus: Antibacterial activity against Klebsiella pneumoniae after 24 hrs by paper disc diffusion technique. It is filed as functional.
Assay [8] deals with Escherichia coli. Nature of the assay: Antibacterial activity against Escherichia coli after 24 hrs by paper disc diffusion technique. Format: functional.
In another assay the test system is Micrococcus luteus. The assay can be described thus: Antibacterial activity against Micrococcus luteus after 24 hrs by paper disc diffusion technique. It is filed as functional.
Assay [9] relates to Staphylococcus epidermidis. Nature of the assay: Antibacterial activity against Staphylococcus epidermidis after 24 hrs by paper disc diffusion technique. It is filed as functional.
Assay [10] concerns Staphylococcus aureus. Nature of the assay: Antibacterial activity against Staphylococcus aureus after 24 hrs by paper disc diffusion technique. It is filed as functional.
The test system of another assay is Salmonella typhi. Nature of the assay: Antibacterial activity against Salmonella typhi. It is filed as functional, Salmonella enterica subsp. enterica serovar Typhi. The following applies: Salmonella enterica.
[11] abbreviates: Pseudomonas aeruginosa, 24 h, read-out: MIC.
The mark [12] stands for this setting: Klebsiella pneumoniae, 24 h, read-out: MIC.
Where [13] appears, read: Escherichia coli, 24 h, read-out: MIC.
Where [14] appears, read: Micrococcus luteus, 24 h, read-out: MIC.
Setting [15] is: Staphylococcus epidermidis, 24 h, read-out: MIC.
Where [16] appears, read: Staphylococcus aureus, 24 h, read-out: MIC.

≈ marks a conversion by molar mass, not a printed value.

In the case of `CC1(C)S[C@@H]2[C@H](NC(=O)Cc3ccccc3)C(=O)N2[C@H]1C(=O)O` [PENICILLIN G], the IC50 with Pseudomonas aeruginosa [1], in the assay with Escherichia coli [2] and with Staphylococcus aureus [3] was 631 µM in each case.
On to `Cc1ccc2c(c1)/C(=N/NC(=O)N/N=C1\C(=O)Nc3ccc(C)cc31)C(=O)N2`, for which the MIC against Staphylococcus aureus [4], against Bacillus subtilis, against Pseudomonas aeruginosa [5] and with Escherichia coli [6] was 6.25 to 100 µg/mL (≈ 16.6 to 266 µM) in each case.
Regarding `O=C(N/N=C1\C(=O)Nc2ccc(Br)cc21)N/N=C1\C(=O)Nc2ccc(Br)cc21`, the MIC against Staphylococcus aureus [4], in the assay with Bacillus subtilis, against Pseudomonas aeruginosa [5] and in the assay with Escherichia coli [6] was 6.25 to 100 µg/mL (≈ 12.3 to 198 µM) in each case.
For the compound `O=C(N/N=C1\C(=O)Nc2ccc([N+](=O)[O-])cc21)N/N=C1\C(=O)Nc2ccc([N+](=O)[O-])cc21`, the MIC against Staphylococcus aureus [4], against Bacillus subtilis, in the assay with Pseudomonas aeruginosa [5] and against Escherichia coli [6] was 6.25 to 100 µg/mL (≈ 14.3 to 228 µM) throughout.
For the compound `Cc1ccc(/C=N/c2ccc(/N=C3/C(=O)N(CN4CCN(c5cc6c(cc5F)c(=O)c(C(=O)O)cn6C5CC5)CC4)c4ccc(F)cc43)cc2)cc1`, the MIC (with Pseudomonas aeruginosa [7] (setting [11]); with Klebsiella pneumoniae (setting [12]); in the assay on Escherichia coli [8] (setting [13]); in the assay on Micrococcus luteus (setting [14]); in [9] (setting [15]); in the assay with Staphylococcus aureus [10] (setting [16])) was 7.81 to 125 µg/mL (≈ 11.1 to 178 µM) each time.
As to `O=C(N/N=C1\C(=O)Nc2ccc(Cl)cc21)N/N=C1\C(=O)Nc2ccc(Cl)cc21`, the MIC against Staphylococcus aureus [4], against Bacillus subtilis, against Pseudomonas aeruginosa [5] and in the assay with Escherichia coli [6] was 6.25 to 100 µg/mL (≈ 15 to 240 µM) each time.
On to `O=C(O)c1cn(C2CC2)c2cc(N3CCN(CN4C(=O)/C(=N/c5ccc(/N=C/c6ccccc6)cc5)c5cc(F)ccc54)CC3)c(F)cc2c1=O`, for which the MIC (with Pseudomonas aeruginosa [7] (setting [11]); in the assay on Klebsiella pneumoniae (setting [12]); in the assay on Escherichia coli [8] (setting [13]); with Micrococcus luteus (setting [14]); in [9] (setting [15]); in the assay with Staphylococcus aureus [10] (setting [16])) was 7.81 to 125 µg/mL (≈ 11.4 to 182 µM) throughout.
For `Cc1ccc2c(c1)/C(=N/NC(=O)N/N=C1\C(=O)N(Cc3ccccc3)c3ccc(C)cc31)C(=O)N2Cc1ccccc1`, the MIC in the assay with Staphylococcus aureus [4], in the assay on Bacillus subtilis, in the assay with Pseudomonas aeruginosa [5] and in the assay on Escherichia coli [6] was 6.25 to 100 µg/mL (≈ 11.2 to 180 µM) each time.
For the compound `COc1cc(/C=N/c2ccc(/N=C3/C(=O)N(CN4CCN(c5cc6c(cc5F)c(=O)c(C(=O)O)cn6C5CC5)CC4)c4ccc(F)cc43)cc2)ccc1O`, the MIC (in the assay on Pseudomonas aeruginosa [7] (setting [11]); in the assay with Klebsiella pneumoniae (setting [12]); with Escherichia coli [8] (setting [13]); in the assay with Micrococcus luteus (setting [14]); in assay [9] (setting [15]); with Staphylococcus aureus [10] (setting [16])) was 7.81 to 125 µg/mL (≈ 10.7 to 171 µM) each time.
As to `CN(C)c1ccc(/C=N/c2ccc(/N=C3/C(=O)N(CN4CCN(c5cc6c(cc5F)c(=O)c(C(=O)O)cn6C5CC5)CC4)c4ccc(F)cc43)cc2)cc1`, the MIC (with Pseudomonas aeruginosa [7] (setting [11]); in the assay on Klebsiella pneumoniae (setting [12]); with Escherichia coli [8] (setting [13]); in the assay with Micrococcus luteus (setting [14]); in [9] (setting [15]); in the assay with Staphylococcus aureus [10] (setting [16])) was 7.81 to 125 µg/mL (≈ 10.7 to 171 µM) in each case.
With `Cc1c(C)c2c(c(C)c1O)CCC(C)(C(=O)N/N=C1\C(=O)Nc3ccc(Cl)cc31)O2` (stereo unspecified), the MIC against Pseudomonas aeruginosa [1] fell in the range of 12.5 to 100 µg/mL; in the assay with Escherichia coli [2] it was 12.5 to 100 µg/mL (≈ 29.2 to 234 µM); against Staphylococcus aureus [3] it was 12.5 to 100 µg/mL (≈ 29.2 to 234 µM).
Regarding `O=C(O)c1cn(C2CC2)c2cc(N3CCN(CN4C(=O)/C(=N/c5ccc(/N=C/c6cccc([N+](=O)[O-])c6)cc5)c5cc(F)ccc54)CC3)c(F)cc2c1=O`, the MIC (in the assay with Pseudomonas aeruginosa [7] (setting [11]); in the assay with Klebsiella pneumoniae (setting [12]); with Escherichia coli [8] (setting [13]); with Micrococcus luteus (setting [14]); in assay [9] (setting [15]); in the assay on Staphylococcus aureus [10] (setting [16])) was 7.81 to 125 µg/mL (≈ 10.7 to 171 µM) throughout.
Turning to `O=C(N/N=C1\C(=O)Nc2ccc(F)cc21)N/N=C1\C(=O)Nc2ccc(F)cc21`, the MIC against Staphylococcus aureus [4], in the assay with Bacillus subtilis, with Pseudomonas aeruginosa [5] and in the assay on Escherichia coli [6] was 6.25 to 100 µg/mL (≈ 16.3 to 260 µM) each time.
As for `O=C(N/N=C1\C(=O)Nc2ccc(C(=O)O)cc21)N/N=C1\C(=O)Nc2ccc(C(=O)O)cc21`, the MIC in the assay with Staphylococcus aureus [4], against Bacillus subtilis, with Pseudomonas aeruginosa [5] and against Escherichia coli [6] was 6.25 to 100 µg/mL (≈ 14.3 to 229 µM) in each case.
As for `COc1ccc(NC(=O)CN2C(=O)/C(=N\c3ccccc3)c3ccccc32)cc1`, the MIC against Pseudomonas aeruginosa [1] lay in the range of 0.003 to 0.324 µM; against Salmonella typhi, 0.003 to 0.324 µM (≈ 0.00116 to 0.125 µg/mL).
For `O=C(O)c1cn(C2CC2)c2cc(N3CCN(CN4C(=O)/C(=N/c5ccc(/N=C/c6ccc(O)cc6)cc5)c5cc(F)ccc54)CC3)c(F)cc2c1=O`, the MIC in the assay on Pseudomonas aeruginosa [7] lay within 7.81 to 15.62 µg/mL; in the assay on Pseudomonas aeruginosa [7] (setting [11]) it was 7.81 to 125 µg/mL (≈ 11.1 to 178 µM); against Klebsiella pneumoniae, 7.81 to 15.62 µg/mL; with Klebsiella pneumoniae (setting [12]), 7.81 to 125 µg/mL (≈ 11.1 to 178 µM); against Escherichia coli [8] it was 7.81 to 15.62 µg/mL; in the assay on Escherichia coli [8] (setting [13]) it was 7.81 to 125 µg/mL (≈ 11.1 to 178 µM). Also, the MIC lay within 7.81 to 15.62 µg/mL against Micrococcus luteus; 7.81 to 125 µg/mL (≈ 11.1 to 178 µM) in the assay on Micrococcus luteus (setting [14]); 7.81 to 15.62 µg/mL in [9]; 7.81 to 125 µg/mL (≈ 11.1 to 178 µM) in assay [9] (setting [15]); 7.81 to 15.62 µg/mL against Staphylococcus aureus [10]; 7.81 to 125 µg/mL (≈ 11.1 to 178 µM) in the assay with Staphylococcus aureus [10] (setting [16]).
As to `Cc1c(C)c2c(c(C)c1O)CCC(C)(C(=O)N/N=C1\C(=O)Nc3ccccc31)O2` (stereo unspecified), the results for the MIC in the assay on Pseudomonas aeruginosa [1], against Escherichia coli [2] and in the assay on Staphylococcus aureus [3] were 12.5 to 100 µg/mL, 12.5 to 100 µg/mL (≈ 31.8 to 254 µM) and 12.5 to 100 µg/mL (≈ 31.8 to 254 µM), respectively.

By IC50 is commonly meant the concentration needed to halve the response being measured. Low readings indicate higher potency, high ones lower potency. By MIC is commonly meant the lowest concentration found to suppress growth.
